Measured values taken from PMC6270872, “Xanthenedione Derivatives, New Promising Antioxidant and Acetylcholinesterase Inhibitor Agents” (Molecules, 2014).
Values after ≈ are worked out from the molar mass of the structure shown. “Also recorded” adds a separate entry of the source.

Tests used:
[1] = Reducing power, potassium ferricyanide reduction method; settings: four concentrations, 20–80 μg/mL; absorbance at 700 nm; references BHT and quercetin (Figure 3)
Method: The reductive potential of the compounds and standard was determined according to a previously described method. An aliquot of the sample or standard (1.0 mL) at various concentrations (20–80 μg/mL in DMSO) was mixed with phosphate buffer (0.2 mol L^−^1, pH 6.6, 1.25 mL) and 1% potassium ferricyanide (1.25 mL). The mixture was incubated at 50 °C for 20 min. After cooling, 1.25 mL of 10% trichloroacetic acid was added and the mixture incubated at 50 °C for 10 min. 1.25 mL of this solution was mixed with distilled water (1.25 mL) and 0.1% iron(III) chloride (0.25 mL) and the absorbance measured at 700 nm using an appropriate blank. Assays were carried out in triplicate.

[2] = molecular target: T1, AChE from Electrophorus electricus (Electrophorus electricus, UniProt O42275); assay: biochemical; assay type: biochemical; settings: for IC50: ± SD, n = 4, read-out: Anti-AChE IC50
T1 construct: purchased Sigma-Aldrich Chemical Company, St. Louis, MO, USA
T1 sequence (O42275 24-633): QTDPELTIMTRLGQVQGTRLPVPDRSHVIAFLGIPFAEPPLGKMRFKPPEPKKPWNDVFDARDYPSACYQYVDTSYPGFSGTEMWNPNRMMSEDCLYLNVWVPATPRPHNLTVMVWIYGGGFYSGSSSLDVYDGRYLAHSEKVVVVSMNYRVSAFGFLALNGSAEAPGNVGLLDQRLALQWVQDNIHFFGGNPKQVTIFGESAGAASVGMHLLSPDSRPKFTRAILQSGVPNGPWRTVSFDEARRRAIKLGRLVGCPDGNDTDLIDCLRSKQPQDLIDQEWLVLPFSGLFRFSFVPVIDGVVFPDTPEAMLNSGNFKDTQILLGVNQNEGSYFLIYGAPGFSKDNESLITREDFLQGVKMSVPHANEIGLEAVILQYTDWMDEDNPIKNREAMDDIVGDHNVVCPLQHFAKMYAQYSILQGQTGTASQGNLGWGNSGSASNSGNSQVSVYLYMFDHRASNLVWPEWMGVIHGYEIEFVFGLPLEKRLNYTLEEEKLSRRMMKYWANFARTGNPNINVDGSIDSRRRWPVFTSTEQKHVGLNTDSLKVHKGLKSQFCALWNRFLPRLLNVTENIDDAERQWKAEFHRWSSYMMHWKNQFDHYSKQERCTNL
Method: The AChE activity was evaluated using the method described by Ellman et al. and Ingkaninan et al., modified. Briefly, 10 μL of 0.25 U/mL AChE from Electrophorus electricus (Sigma-Aldrich® Chemical Company, St. Louis, MO, USA) was added to the wells containing sample in different concentrations, and allowed to incubate for 5 min. Reaction was started by the addition 5 μL of 3 mM 5,5'-dithiobis[2-nitrobenzoic acid] (DTNB,) and 5 μL of 75 mM acetylthiocholine iodide (ATCI; Fluka Chemicals, Buchs, Switzerland). The absorbance was then read at 415 nm every 2.5 min for 7.5 min in a Bio Rad Model 680 Microplate Reader (Bio-Rad Laboratories, Inc., Hercules, CA, USA). Percentage of enzymatic inhibition was calculated relatively to the control without inhibitor. Every experiment was done in quadruplicate. […] PROGRAM Version 1.4 was used.

[3] = DPPH radical scavenging assay; settings: for EC50: concentration of the compound to reduce the DPPH radical concentration to 50%, ± SD; for Radical Scavenging Activity AE (antiradical efficiency): AE = 1/(EC50 × TEC50), TEC50 = time to reach the steady state for the EC50
Method: Antioxidant activity was assayed by the DPPH (1,1-diphenyl-2-picrylhydrazyl) radical scavenging assay using the Blois method modified. […] In each assay, a control was prepared, in which the compound or standard (quercetin and BHT) was substituted by the same amount of solvent. The mixture was shaken vigorously and left to stand for 30 min in the dark, and the absorbance was then measured at 517 nm. The capability to scavenge the DPPH radical was calculated using the following equation: DPPH scavenging activity (%) = [(Ac − As)/Ac] × 100(1) where, Ac is the absorbance of the control and As is the absorbance of the compound or standard. All assays were carried out in triplicate and results expressed as EC50, i.e., as the concentration yielding 50% scavenging of DPPH, calculated by interpolation from the % vs. concentration curve.

[4] = Maximum soluble concentration in the DPPH assay; assay type: physicochemical; settings: ethanol (ethanolic solution of the DPPH assay), ethanolic solutions, read-out: maximum concentration at which the compound is soluble
Method: Antioxidant activity was assayed by the DPPH (1,1-diphenyl-2-picrylhydrazyl) radical scavenging assay using the Blois method modified [24]. Briefly, different volumes of the ethanolic solutions of each compound or standard (1–100 µM) were added fixed volume of DPPH ethanolic solution (400 µL of the solution 0.6 mM) and solvent (ethanol) to obtain, in each case, a fixed total volume. In each assay, a control was prepared, in which the compound or standard (quercetin and BHT) was substituted by the same amount of solvent. The mixture was shaken vigorously and left to stand for 30 min in the dark, and the absorbance was then measured at 517 nm. The capability to scavenge the DPPH radical was calculated using the following equation: DPPH scavenging activity (%) = [(Ac − As)/Ac] × 100(1) where, Ac is the absorbance of the control and As is the absorbance of the compound or standard. All assays were carried out in triplicate and results expressed as EC50, i.e., as the concentration yielding 50% scavenging of DPPH, calculated by interpolation from the % vs. concentration curve.

SMILES | Reducing power (reduction of ferric ion) [1] | IC50 [2] | Type of AChE inhibition [2] | DPPH quenched ([3]; at 552 µM, the maximum soluble concentration) | EC50 [3] | solubility [4] | Radical Scavenging Activity AE (antiradical efficiency) [3]
O=C1CC(c2ccccc2)C(=Cc2ccccc2)c2oc3cccc(O)c3c(=O)c21 (centres unmarked) [Compound 5a, (E)-3-Aryl-4-benzylidene-8-hydroxy-3,4-dihydro-1H-xanthene-1,9(2H)-dione] | did not significantly reduce ferric ion | > 381 µM |  |  |  |  | 
Cc1ccc(/C=C2/c3oc4cccc(O)c4c(=O)c3C(=O)CC2c2ccc(C)cc2)cc1 (centres unmarked) [Compound 5b, (E)-8-Hydroxy-4-(4-methylbenzylidene)-3-(4-methylphenyl)-3,4-dihydro-1H-xanthene-1,9(2H)-dione] |  | > 355 µM |  |  |  |  | 
O=C1CC(c2ccc(O)cc2)C(=Cc2ccc(O)cc2)c2oc3cccc(O)c3c(=O)c21 (centres unmarked) [Compound 5c] | did not significantly reduce ferric ion | 41.1 ± 6.1 µM | mixed type inhibition | 36% | > 552 µM | 552 µM (≈ 235 µg/mL) | 
O=C1CC(c2ccc(Cl)cc2)C(=Cc2ccc(Cl)cc2)c2oc3cccc(O)c3c(=O)c21 (centres unmarked) [Compound 5d] |  | > 325 µM |  |  |  |  | 
O=C1CC(c2ccc(O)c(O)c2)C(=Cc2ccc(O)c(O)c2)c2oc3cccc(O)c3c(=O)c21 (centres unmarked) [Compound 5e, (E)-8-Hydroxy-4-(3,4-dihydroxybenzylidene)-3-(3,4-dihydroxyphenyl)-3,4-dihydro-1H-xanthene-1,9-(2H)-dione] | higher reduction capacity than BHT and similar to quercetin; also recorded: more efficient than BHT and similar to quercetin | 31 ± 0.09 µM | almost pure competitive type inhibition |  | 3.79 ± 0.06 µM |  | 0.026
O=C1CC(c2ccccc2Cl)/C(=C\c2ccccc2Cl)c2oc3cccc(O)c3c(=O)c21 (centres unmarked) [Compound 5f, (E)-4-(2-Chlorobenzylidene)-3-(2-chlorophenyl)-8-hydroxy-3,4-dihydro-1H-xanthene-1,9(2H)-dione] |  | > 325 µM |  |  |  |  | 
O=c1c(O)c(-c2ccc(O)c(O)c2)oc2cc(O)cc(O)c12 [Quercetin, reference compound] |  |  |  |  | 5.97 ± 0.11 µM |  | 0.0042
Cc1c(C)c2c(c(C)c1O)CCC(C)(C(=O)O)O2 (centres unmarked) [Trolox, reference compound] |  |  |  |  | 18.7 ± 0.65 µM |  | 0.011
